Starred links: 1 amine or outer side, 2 acyl side, 3 side chain; linkers in the order of their positions; H or OH if unused. Non-standard residues stand in square brackets, D forms with d. Residues, ends and D or L forms follow the SMILES beside them. *: point of attachment. Exatecan = CC[C@@]1(O)C(=O)OCc2c1cc1n(c2=O)Cc2c-1nc1cc(F)c(C)c3c1c2[C@@H](N*)CC3; Propanoyl(3-maleimido) = O=C1C=CC(=O)N1CCC(=O)*; PABC = O=C(OCc1ccc(N[*:1])cc1)[*:2]
Experiments:
[1] = test system: a variety of cell lines; conditions: versus SN38; cited from earlier work
[2] = molecular target: T1, topo I/DNA complex (Homo sapiens, UniProt P11387); conditions: versus SN38 (the active metabolite of irinotecan); cited from earlier work
T1 sequence (P11387 1-765): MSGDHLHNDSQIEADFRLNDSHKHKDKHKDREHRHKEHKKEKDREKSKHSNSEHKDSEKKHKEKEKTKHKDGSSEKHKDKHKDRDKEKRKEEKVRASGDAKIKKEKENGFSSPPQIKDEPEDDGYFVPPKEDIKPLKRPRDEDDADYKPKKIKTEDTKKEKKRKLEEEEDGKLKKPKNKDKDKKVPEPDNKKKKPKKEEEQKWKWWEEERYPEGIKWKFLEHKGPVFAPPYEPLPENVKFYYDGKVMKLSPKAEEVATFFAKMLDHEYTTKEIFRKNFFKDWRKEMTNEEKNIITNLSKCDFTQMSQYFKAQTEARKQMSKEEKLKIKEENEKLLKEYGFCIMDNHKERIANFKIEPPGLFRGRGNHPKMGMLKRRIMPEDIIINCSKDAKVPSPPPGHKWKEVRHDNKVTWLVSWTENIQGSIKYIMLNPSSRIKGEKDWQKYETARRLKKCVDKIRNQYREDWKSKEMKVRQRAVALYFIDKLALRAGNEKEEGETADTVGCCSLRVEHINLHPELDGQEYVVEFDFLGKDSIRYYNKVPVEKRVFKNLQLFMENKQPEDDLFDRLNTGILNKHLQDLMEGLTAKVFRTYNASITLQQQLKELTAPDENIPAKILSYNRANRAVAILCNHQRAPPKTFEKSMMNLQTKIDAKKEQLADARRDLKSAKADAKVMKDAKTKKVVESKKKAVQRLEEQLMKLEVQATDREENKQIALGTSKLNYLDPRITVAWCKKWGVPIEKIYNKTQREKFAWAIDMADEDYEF

[3] = Aggregation during conjugation to a test antibody (% monomer by SEC); format: physicochemical
Protocol: 2 mg of monoclonal antibody GB01 at 8.87 mg/ml was pH adjusted with 5% 0.5 M Tris, 0.025 M EDTA, pH 8.5 and reduced with 2.3 mol. eq. TCEP and then conjugated with 6 mol. eq. drug linker. After buffer exchange into 30 mM Histidine, 175 mM Sucrose pH 6.0/PBS, the drug to antibody ratio (DAR) was by HIC/LC-MS and % Monomer by size exclusion chromatography (SEC). Percentage monomer values of 95% or greater are assessed as low aggregation.
Aggregation levels were assessed during the conjugation to a test antibody. Conjugation was performed as described above for ADC1.
During conjugation, we are ideally targeting a monomer content or percentage monomer of 95% or above. Low percentage monomer values usually translate to a higher degree of aggregation. One could therefore agree that percentage monomer values of 95% or higher mean very low levels of aggregation or none, whereas values below this threshold often translate to higher levels of aggregation.

[4] = RP-HPLC retention time correlated with hydrophobicity; format: physicochemical; conditions: high Rt = hydrophobic, low Rt = hydrophilic
Protocol: A correlation study was also carried out using Reverse-Phase HPLC (RP-HPLC). The two constructs were injected in RP-HPLC and retention times (Rt) correlated with hydrophobicity—i.e., high Rt was associated to hydrophobic constructs whereas low Rt to hydrophilic ones.

SMILES	potency relative to SN38 as a cytotoxin [1]	potency relative to SN38 at stabilizing the topo I/DNA complex [2]	Aggregation [3]	Aggregation (% monomer) ([3]; 95% or greater = low aggregation)	Rt [4]
CC[C@@]1(O)C(=O)OCc2c1cc1n(c2=O)Cc2c-1nc1cc(F)c(C)c3c1c2[C@@H](N)CC3 [Exatecan]	about 2.5 fold	about 2.5 fold	–	–	–
CC[C@@]1(O)C(=O)OCc2c1cc1n(c2=O)Cc2c-1nc1cc(F)c(C)c3c1c2[C@@H](NC(=O)OCc1ccc(NC(=O)[C@H](C)NC(=O)[C@@H](NC(=O)CNC(=O)CNC(=O)CNC(=O)CNC(=O)CNC(=O)CCN2C(=O)C=CC2=O)C(C)C)cc1)CC3 [Mal-Gly5-VA-PABC-Exatecan] ({Propanoyl(3-maleimido)}-GGGGGVA[PABC]-Exatecan)	–	–	None	98%	9.76 min
